The OPERA property sets (Mansouri et al. 2018)

SMILES: CC(=O)Oc1c(C)cc(OCC(O)CNC(C)C)c(C)c1C (configuration not stated)
- logP: 2.66

SMILES: CN1CCN(CCCN2c3ccccc3Sc3ccccc32)CC1
- logP: 4

SMILES: CC(C)(C)NCC(O)COc1ccccc1C#N (configuration not stated)
- logP: 1.6

SMILES: CCN1CCCC1CNC(=O)c1cc(S(=O)(=O)CC)c(N)cc1OC (configuration not stated)
- logP: 1.1

SMILES: C=CCN1CCCC1CNC(=O)c1cc(S(N)(=O)=O)cc(OC)c1OC (configuration not stated)
- logP: 1.47

SMILES: CNC(=O)Nc1c(OCCN2CCCC2)c(OC)c2occc2c1OC
- logP: 1.38

SMILES: CC(C)(C)c1cc(C(O)CCC2CCNCC2)c2ccccc2n1 (configuration not stated)
- logP: 3.63

SMILES: CCN1CCCC1CNC(=O)c1cc(S(=O)(=O)CC)ccc1OC (configuration not stated)
- logP: 1.06

SMILES: O=C(NCC1CCCCN1)c1cc(OCC(F)(F)F)ccc1OCC(F)(F)F (configuration not stated)
- logP: 3.78

SMILES: C=CCN1CCCC1CNC(=O)c1cc2nn[nH]c2cc1OC (configuration not stated)
- logP: 1.79

SMILES: CC(C)NCCCC1(C(N)=O)c2ccccc2-c2ccccc21
- logP: 3.11

SMILES: CC(C)NCC(O)COc1cccc2c1N(C(=O)c1cccnc1)CCC2 (configuration not stated)
- logP: 1.63
